Patent US20230111310A1, “CARBOXYLIC ACID DERIVATIVE-SUBSTITUTED IMINO ARYL COMPOUND, PREPARATION METHOD THEREFOR, HERBICIDAL COMPOSITION AND USE THEREOF” (Qingdao Kingagroot Chemical Compound Co., Ltd., priority 2020, published 2023)

Experiments:
Type in all cases: in vivo
[1] = test system: Abutilon theophrasti; experiment: Weeding effect in post-emergence stage; details: for Weeding effect in post-emergence stage, Abutilon theophrasti (level): fresh weight control rate level
Outline: (§1)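 Post-emergence spray tower; 2-3 leaf plants (2 wk after sowing, soil pots, greenhouse). Formulation: acetone, Tween 80, methyl oleate EC 1.5 liter/ha as synergist, water. Rates 500–7.5 g/ha. Growth control rate read at 3 wk; n=3, averaged.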

[2] = test system: Setaria viridis; experiment: Weeding effect in post-emergence stage; details: for Weeding effect in post-emergence stage, Setaria viridis (level): fresh weight control rate level
Outline: as §1

[3] = test system: Alopecurus japonicus; experiment: Weeding effect in post-emergence stage; details: for Weeding effect in post-emergence stage, Alopecurus japonicus (level): fresh weight control rate level
Outline: as §1

[4] = test system: Eleusine indica; experiment: Weeding effect in post-emergence stage; details: for Weeding effect in post-emergence stage, Eleusine indica (level): fresh weight control rate level
Outline: as §1

[5] = test system: Digitaria sanguinalis; experiment: Weeding effect in post-emergence stage; details: for Weeding effect in post-emergence stage, Digitaria sanguinalis (level): fresh weight control rate level
Outline: as §1

[6] = test system: Echinochloa crusgalli; experiment: Weeding effect in post-emergence stage; details: for Weeding effect in post-emergence stage, Echinochloa crusgalli (level): fresh weight control rate level
Outline: as §1

[7] = test system: cotton; experiment: Pre-emergence stage, crop selectivity; details: 30 g/ha, 4 weeks
Experimental: (§2) The activity level criteria for plant damage (i.e., growth control rate) are as follows:
(§3) The aforementioned seeds of monocotyledonous and dicotyledonous weeds and main crops were put into a plastic pot loaded with soil and covered with 0.5-2 cm soil. The test compounds of the present invention was dissolved with acetone, then added with tween 80, diluted by a certain amount of water to reach a certain concentration, and sprayed immediately after sowing. The obtained seeds were incubated for 4 weeks in the greenhouse after spraying and the test results were observed. It was observed that the herbicide mostly had excellent effect at the application rate of 500, 250, 125, 60, 30, 15, 7.5 g/ha, especially to weeds such as Echinochloa crusgalli. Digitaria sanguinalis and Abutilon theophrasti, etc. And many compounds had good selectivity for corn, cotton, wheat, rice, soybean, and peanut etc. In addition, evaluate the weed control effect with the above activity standard level.

[8] = test system: corn; experiment: Pre-emergence stage, crop selectivity; details: 30 g/ha, 4 weeks
Experimental: as §2, §3

[9] = test system: Soybeans; experiment: Pre-emergence stage, crop selectivity; details: 30 g/ha, 4 weeks
Experimental: as §2, §3

[10] = test system: Peanut; experiment: Pre-emergence stage, crop selectivity; details: 30 g/ha, 4 weeks
Experimental: as §2, §3

[11] = test system: Amaranthus retroflexus; experiment: Weeding effect in pre-emergence stage; details: 30 g/ha, 4 weeks
Experimental: as §2, §3

[12] = test system: Capsella bursa-pastoris; experiment: Weeding effect in pre-emergence stage; details: 30 g/ha, 4 weeks
Experimental: as §2, §3

[13] = test system: Veronica didyma Tenore; experiment: Weeding effect in pre-emergence stage; details: 30 g/ha, 4 weeks
Experimental: as §2, §3

[14] = test system: Abutilon theophrasti; experiment: Weeding effect in pre-emergence stage; details: 30 g/ha, 4 weeks
Experimental: as §2, §3

[15] = test system: Setaria viridis; experiment: Weeding effect in pre-emergence stage; details: 30 g/ha, 4 weeks
Experimental: as §2, §3

[16] = test system: Descurainia sophia; experiment: Weeding effect in pre-emergence stage; details: 30 g/ha, 4 weeks
Experimental: as §2, §3

[17] = Dose 15 g/ha, level of fresh weight growth control rate

Row | Structure (SMILES) | Weeding effect in post-emergence stage, Abutilon theophrasti (level) ([1]; Dose 30 g/ha) | Weeding effect in post-emergence stage, Setaria viridis (level) ([2]; Dose 30 g/ha) | Weeding effect in post-emergence stage, Alopecurus japonicus (level) ([3]; Dose 30 g/ha) | Weeding effect in post-emergence stage, Eleusine indica (level) ([4]; Dose 30 g/ha) | Weeding effect in post-emergence stage, Digitaria sanguinalis (level) ([5]; Dose 30 g/ha) | Weeding effect in post-emergence stage, Echinochloa crusgalli (level) ([6]; Dose 30 g/ha) | Weeding effect in post-emergence stage, Abutilon theophrasti (level) ([1]; Dose 15 g/ha) | Weeding effect in post-emergence stage, Setaria viridis (level) ([2]; Dose 15 g/ha) | Weeding effect in post-emergence stage, Alopecurus japonicus (level) ([3]; Dose 15 g/ha) | Weeding effect in post-emergence stage, Eleusine indica (level) ([4]; Dose 15 g/ha) | Weeding effect in post-emergence stage, Digitaria sanguinalis (level) ([5]; Dose 15 g/ha) | Weeding effect in post-emergence stage, Echinochloa crusgalli (level) ([6]; Dose 15 g/ha) | other results
1 | CCOC(=O)[C@@H](C)O/N=C/c1cc(-n2c(=O)n(C)c(=S)n(C)c2=O)c(F)cc1Cl [2(R)] | – | – | – | – | – | – | – | – | – | – | – | – | Weeding effect in post-emergence stage, Abutilon theophrasti [1, 17]: 5 (Level 5: growth control rate is above 85%); Weeding effect in post-emergence stage, Setaria viridis [2, 17]: 5 (Level 5: growth control rate is above 85%); Weeding effect in post-emergence stage, Alopecurus japonicus [3, 17]: 5 (Level 5: growth control rate is above 85%); Weeding effect in post-emergence stage, Eleusine indica [4, 17]: 5 (Level 5: growth control rate is above 85%); Weeding effect in post-emergence stage, Digitaria sanguinalis [5, 17]: 5 (Level 5: growth control rate is above 85%); Weeding effect in post-emergence stage, Echinochloa crusgalli [6, 17]: 5 (Level 5: growth control rate is above 85%); plant damage level Cotton [7]: 0 (Level 0: growth control rate is less than 5%); plant damage level Corn [8]: 0 (Level 0: growth control rate is less than 5%); plant damage level Soybeans [9]: 0 (Level 0: growth control rate is less than 5%); plant damage level Peanut [10]: 0 (Level 0: growth control rate is less than 5%); activity level (growth control rate) Amaranthus retroflexus [11]: 5 (Level 5: growth control rate is above 85%); activity level (growth control rate) Capsella bursa-pastoris [12]: 5 (Level 5: growth control rate is above 85%); activity level (growth control rate) Veronica didyma Tenore [13]: 5 (Level 5: growth control rate is above 85%); activity level (growth control rate) Abutilon theophrasti [14]: 5 (Level 5: growth control rate is above 85%); activity level (growth control rate) Setaria viridis [15]: 5 (Level 5: growth control rate is above 85%); activity level (growth control rate) Descurainia sophia [16]: 5 (Level 5: growth control rate is above 85%)
2 | COC(=O)C(C)NN=Cc1cc(-n2c(=O)n(C)c(=S)n(C)c2=O)c(F)cc1Cl (stereo not shown) [Compound 881] | 5 (Level 5: growth control rate is above 85%) | 5 (Level 5: growth control rate is above 85%) | 5 (Level 5: growth control rate is above 85%) | 5 (Level 5: growth control rate is above 85%) | 5 (Level 5: growth control rate is above 85%) | 5 (Level 5: growth control rate is above 85%) | – | – | – | – | – | – | –
3 | CC(C)OC(=O)C(C)N(C)N=Cc1cc(-n2c(=O)n(C)c(=S)n(C)c2=O)c(F)cc1Cl (stereo not shown) [Compound 885] | 5 (Level 5: growth control rate is above 85%) | 5 (Level 5: growth control rate is above 85%) | 5 (Level 5: growth control rate is above 85%) | 5 (Level 5: growth control rate is above 85%) | 5 (Level 5: growth control rate is above 85%) | 5 (Level 5: growth control rate is above 85%) | – | – | – | – | – | – | –
4 | COC(=O)C(C)NN=Cc1cc(-n2c(=O)cc(C(F)(F)F)n(C)c2=O)c(F)cc1Cl (stereo not shown) [Compound 919] | 5 (Level 5: growth control rate is above 85%) | 5 (Level 5: growth control rate is above 85%) | 5 (Level 5: growth control rate is above 85%) | 5 (Level 5: growth control rate is above 85%) | 5 (Level 5: growth control rate is above 85%) | 5 (Level 5: growth control rate is above 85%) | – | – | – | – | – | – | –
5 | CO/N=C/c1cc(-n2c(=O)n(C)c(=S)n(C)c2=O)c(F)cc1Cl [Control compound A, reference compound] | – | – | – | – | – | – | 3 (Level 3: growth control rate is greater than or equal to 40% and less than 60%) | 1 (Level 1: growth control rate is greater than or equal to 5% and less than 20%) | 0 (Level 0: growth control rate is less than 5%) | 1 (Level 1: growth control rate is greater than or equal to 5% and less than 20%) | 1 (Level 1: growth control rate is greater than or equal to 5% and less than 20%) | 0 (Level 0: growth control rate is less than 5%) | –
6 | CCOC(=O)CO/N=C/c1cc(-n2c(=O)cc(C(F)(F)F)[nH]c2=O)ccc1Cl [Control compound B, reference compound] | – | – | – | – | – | – | 3 (Level 3: growth control rate is greater than or equal to 40% and less than 60%) | 2 (Level 2: growth control rate is greater than or equal to 20% and less than 40%) | 1 (Level 1: growth control rate is greater than or equal to 5% and less than 20%) | 1 (Level 1: growth control rate is greater than or equal to 5% and less than 20%) | 2 (Level 2: growth control rate is greater than or equal to 20% and less than 40%) | 2 (Level 2: growth control rate is greater than or equal to 20% and less than 40%) | –
7 | CO/N=C/c1cc(-n2c(=O)cc(C(F)(F)F)n(N)c2=O)c(F)cc1Cl [Control compound C, reference compound] | – | – | – | – | – | – | 2 (Level 2: growth control rate is greater than or equal to 20% and less than 40%) | 2 (Level 2: growth control rate is greater than or equal to 20% and less than 40%) | 1 (Level 1: growth control rate is greater than or equal to 5% and less than 20%) | 1 (Level 1: growth control rate is greater than or equal to 5% and less than 20%) | 2 (Level 2: growth control rate is greater than or equal to 20% and less than 40%) | 2 (Level 2: growth control rate is greater than or equal to 20% and less than 40%) | –
8 | CCOC(=O)CO/N=C/c1cccc(-n2c(=O)cc(C(F)(F)F)[nH]c2=O)c1 [Control compound F, reference compound] | – | – | – | – | – | – | – | – | – | – | – | – | Weeding effect in post-emergence stage, Abutilon theophrasti (level) ([1]; Dose 60 g/ha): 2 (Level 2: growth control rate is greater than or equal to 20% and less than 40%); Weeding effect in post-emergence stage, Setaria viridis (level) ([2]; Dose 60 g/ha): 1 (Level 1: growth control rate is greater than or equal to 5% and less than 20%); Weeding effect in post-emergence stage, Alopecurus japonicus (level) ([3]; Dose 60 g/ha): 0 (Level 0: growth control rate is less than 5%); Weeding effect in post-emergence stage, Eleusine indica (level) ([4]; Dose 60 g/ha): 1 (Level 1: growth control rate is greater than or equal to 5% and less than 20%); Weeding effect in post-emergence stage, Digitaria sanguinalis (level) ([5]; Dose 60 g/ha): 1 (Level 1: growth control rate is greater than or equal to 5% and less than 20%); Weeding effect in post-emergence stage, Echinochloa crusgalli (level) ([6]; Dose 60 g/ha): 0 (Level 0: growth control rate is less than 5%)
